Source: patent US20130281409A1, “Myelin Sheath Fatty Acids that Resolve Neuroinflammation” (priority 2012, published 2013)
“Also recorded” adds a separate entry of the source.

Legend:
[1] = test system: EAE in PLP139-151-immunized SJL/J mice; test: EAE, lipid administered prophylactically (co-immunization with PLP139-151); type: in vivo, mouse; conditions: 6 μg/injection; s.c. with PLP139-151 on day 0, i.p. on days 4 and 7
Experimental: Animal experiments were approved by, and performed in compliance with, the National Institute of Health guidelines of the Institutional Animal Care and Use Committee at Stanford University. For induction of EAE, 8- to 12-week-old female SJL/J mice (Jackson Laboratory) were immunized subcutaneously with 100 μg of PLP139-151 emulsified in CFA (Difco Laboratories). Three injections of PGPC (6 μg/mouse/injection) or vehicle (0.05% Tween-20 in PBS) were delivered on days 0, 4, and 7 after immunization with PLP139-151. On day 0, the lipid or vehicle was emulsified together with PLP139-151 in CFA and administered by subcutaneous injection. At subsequent time points, lipid or vehicle was injected intraperitoneally. EAE was assessed as previously described. To induce EAE in SJL/J mice (Jackson Mice), we immunized 8- to 12-week-old female animals subcutaneously with 100 μg of PLP139-151 emulsified in CFA (Difco Laboratories). Prophylactic administration of lipid: Three injections of PGPC or sphingomyelin (6 μg/mouse/injection) or vehicle (0.05% Tween-20 in PBS) were delivered on days 0, 4, and 7 after immunization with PLP139-151. […] Clinical disease was monitored daily using the following scoring system: 0, no disease; 1, limp tail; 2, hind limb weakness; 3, hind limb paralysis; 4, hind limb and forelimb paralysis; 5, death. […]

CD4+ T cells = test: CD69 expression on lymph node cells from PGPC-treated EAE mice (flow cytometry); type: in vivo, mouse; conditions: lymph node cells of prophylactically treated EAE mice, cultured 4 days with 10 μg/ml PLP139-151
Experimental: FIG. 9. PGPC treatment of mice with EAE suppresses T-cell activation. (A) Expression of CD69 (an early marker of activation) on CD4+ and CD8+ propidium iodide-negative (i.e. live) lymphocytes isolated from PGPC—or vehicle-treated EAE mice and cultured for 4 days with 10 μg/ml of PLP139-151. The ratio of CD69+CD4+:CD69−CD4+ is 14.2%:39.6% for lymph node cells from vehicle-treated EAE mice, and 7.96%:55.2% for cells from PGPC-treated EAE mice. […] (B) Proliferation and (C) cytokine production of splenocytes isolated from the vehicle- or PGPC-treated EAE mice in panel A. Splenocytes from PGPC-treated mice (gray bars) secreted lower levels of IFN-γ and TNF in response to PLP139-151. *P<0.05, respectively, by Student's t-test comparing PLP139-151-stimulated cells from PGPC-treated mice with PLP139-151-stimulated cells from vehicle-treated mice.
PLP-stimulated cells from PLP139-151-immunized mice administered PGPC prophylactically: SJL/J mice were co-injected with PGPC and PLP139-151 in CFA and sacrificed 48 days later. Lymph node cells and splenocytes were then harvested and re-stimulated in vitro (2.5×10^6 cells/ml) with 10 μg/ml of PLP139-151 or with media alone. […]
Cells were stained according to standard protocols, run on a FACScan flow cytometer (BD Biosciences), and analysed with CellQuest software (BD Immunocytometry Systems) or with FlowJo software version 6.3.2 (Tree Star, Inc.). […]

[2] = test system: lymph node cells and splenocytes; test: PLP139-151-induced cytokine secretion by cells from PGPC-treated EAE mice; type: in vivo, mouse
Experimental: PLP-stimulated cells from PLP139-151-immunized mice administered PGPC prophylactically: SJL/J mice were co-injected with PGPC and PLP139-151 in CFA and sacrificed 48 days later. Lymph node cells and splenocytes were then harvested and re-stimulated in vitro (2.5×10^6 cells/ml) with 10 μg/ml of PLP139-151 or with media alone. PLP-stimulated cells from untreated PLP139-151-immunized mice: SJL/J mice were immunized with PLP139-151 in CFA and sacrificed 10 days later. Splenocytes were then harvested and re-stimulated in vitro (at 5×10^5 cells/ml) with 10 μg/ml of PLP139-151 in the presence of 30 μg/ml of POPS, PGPC, azPC ester, or azPC. Cytokine production by cells from the lymph nodes and spleens of PGPC co-immunized mice was measured after 66 hours of stimulation by using the BD OptEIA™ Mouse IFN-γ ELISA kit (BD Biosciences). Cytokine assays for the anti-CD3/anti-CD28 antibody-stimulated T cells and PLP139-151-stimulated splenocytes were performed on culture supernatants after 48 hours of stimulation using the BD OptEIA™ Mouse IL-6, IFN-γ, and TNF alpha ELISA kits (BD Biosciences) and the Mouse IL-17 DuoSet ELISA Development kit (R&D Systems).

B cells = test: Apoptosis of anti-IgM F(ab')2/anti-CD40-stimulated purified B cells; type: cell-based, mouse; conditions: 30 μg/ml lipid, anti-IgM F(ab')2 and anti-CD40, 48 hours
Experimental: Anti-IgM F(ab′)2 fragment/anti-CD40-stimulated purified B cells: We harvested spleens from naive C57BL/6 mice and used a B-cell isolation kit (Miltenyi Biotec) to negatively isolate B cells. We then stimulated 5×10^5 cells/ml of B cells with 5 μg/ml of each of soluble anti-IgM F(ab′)2 fragment (Jackson ImmunoResearch) antibody and anti-CD40 antibody (eBioscience) in the presence of 30 μg/ml of POPS, PGPC, azPC ester, or azPC.
Cells were stained according to standard protocols, run on a FACScan flow cytometer (BD Biosciences), and analysed with CellQuest software (BD Immunocytometry Systems) or with FlowJo software version 6.3.2 (Tree Star, Inc.). The antibody conjugates used were FITC anti-CD4 (clone GK1.5, BD Pharmingen), FITC anti-mouse CD8 (clone 53-6.7, BD Pharmingen), FITC anti-mouse CD3 (clone 145-2C11, eBioscience), PE-anti-rat IgG2A isotype control (BD Pharmingen), and PE-anti-mouse CD69 (clone H1.2F3, eBioscience). 7AAD staining was performed by using the Annexin V-PE Apoptosis Detection Kit I (BD Pharmingen).

Compound	EAE severity (clinical score) [1]	CD4+CD69+ cells (CD4+ T cells) [%]	CD69−CD4+ cells (CD4+ T cells) [%]	IFN-γ secretion upon PLP139-151 stimulation ([2]; cells from PGPC-treated vs vehicle-treated EAE mice)	TNF secretion upon PLP139-151 stimulation ([2]; splenocytes from PGPC-treated vs vehicle-treated EAE mice)	apoptosis of activated B cells (B cells)
CCCCCCCCCCCCCCCC(=O)OC[C@H](COP(=O)([O-])OCC[N+](C)(C)C)OC(=O)CCCC(=O)O [PGPC, 1-Palmitoyl-2-Glutaroyl-sn-Glycero-3-Phosphocholine]	reduced the severity of EAE	7.96	55.2	secreted less IFN; also recorded: lower levels	lower levels	–
CCCCCCCC/C=C\CCCCCCCC(=O)O[C@H](COC(=O)CCCCCCCCCCCCCCC)COP(=O)(O)OC[C@H](N)C(=O)O [POPS, 1-Palmitoyl-2-Oleoyl-sn-Glycero-3-[Phospho-L-Serine]]	–	–	–	–	–	increased apoptosis
